Data published in patent US20070299091A1, “Azaindole Carboxamides” (priority 2004, published 2007).

Experiments:
5-HT1A [1] = assay: radioligand binding, [3H]8-OH-DPAT, porcine cortex-membrane preparations; conditions: ratio of Ki values 5-HT1A/D3
Experimental: (§1) Measurement of the bonding strengths of the compounds to the serotonin-receptor subtypes 5-HT1A and 5-HT2 was carried out according to methods described by us (Heindl, C. et al. Tetrahedron: Asymmetry 2003, 14, 3141-3152). For this we incubated porcine cortex-membrane preparations with the radioligands [^3H]8-OH-DPAT (for 5-HT1A) or [^3H]ketanserin (5-HT2) and the compounds in various concentrations. In the same way the affinity of the test compounds to the porcine α1-receptor was investigated, wherein porcine cortex-membrane preparations and the α1-selective radioligand [^3H]prazosin were used.

5-HT1A [2] = biological target: T1, 5-HT1A (Sus scrofa, UniProt A0A4X1UTF5); assay: as above; conditions: porcine 5-HT1A, [3H]8-OH-DPAT; average of 2 experiments in triplicate
T1 construct: we incubated porcine cortex-membrane preparations with the radioligands; from tissue; host or cells: porcine cortex
T1 sequence (A0A4X1UTF5 1-422): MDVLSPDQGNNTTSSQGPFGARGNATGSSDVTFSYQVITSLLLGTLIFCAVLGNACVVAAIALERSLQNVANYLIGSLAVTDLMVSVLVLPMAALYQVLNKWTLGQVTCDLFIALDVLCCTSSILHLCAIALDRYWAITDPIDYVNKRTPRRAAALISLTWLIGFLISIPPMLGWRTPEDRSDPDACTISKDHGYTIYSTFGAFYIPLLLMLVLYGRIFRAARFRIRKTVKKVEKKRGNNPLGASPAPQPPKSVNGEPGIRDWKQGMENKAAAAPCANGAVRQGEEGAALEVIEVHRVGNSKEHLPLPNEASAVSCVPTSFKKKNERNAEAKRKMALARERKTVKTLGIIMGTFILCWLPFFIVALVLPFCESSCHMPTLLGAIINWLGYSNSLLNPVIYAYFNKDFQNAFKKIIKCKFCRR
Experimental: as §1

human D2long = biological target: T2, human D2long (Homo sapiens, UniProt P14416); assay: radioligand binding, [3H]spiperone, CHO cell membrane homogenates expressing human D2long; conditions: for Ki: human D2long, [3H]spiperon, average of 2-6 experiments in triplicate; for D3-selectivity D2long/D3: ratio of Ki values D2long/D3
T2 construct: expressed in transfected cells
T2 sequence (P14416 whole entry): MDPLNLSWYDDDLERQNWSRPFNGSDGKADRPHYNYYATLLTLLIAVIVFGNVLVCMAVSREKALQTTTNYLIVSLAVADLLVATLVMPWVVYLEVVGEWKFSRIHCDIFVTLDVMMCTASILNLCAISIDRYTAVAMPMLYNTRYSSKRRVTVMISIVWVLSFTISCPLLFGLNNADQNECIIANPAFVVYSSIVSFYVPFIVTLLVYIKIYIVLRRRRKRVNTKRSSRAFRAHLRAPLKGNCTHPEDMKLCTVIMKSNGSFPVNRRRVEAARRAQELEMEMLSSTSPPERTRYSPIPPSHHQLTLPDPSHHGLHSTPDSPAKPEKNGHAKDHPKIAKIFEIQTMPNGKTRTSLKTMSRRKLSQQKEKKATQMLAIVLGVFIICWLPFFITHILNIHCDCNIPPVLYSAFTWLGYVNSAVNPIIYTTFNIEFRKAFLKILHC
Experimental: (§2) The biological activities of the compounds according to the invention were determined in radioligand bonding investigations. […] Mol. […] Neurochem. […] Basically the binding assays took place by incubation of the receptor homogenates with the radioligand [^3H]spiperone and the compounds under investigation in various concentrations.

5-HT2 = 5-HT2 (Sus scrofa, UniProt P50129); assay: radioligand binding, [3H]ketanserin, porcine cortex-membrane preparations; conditions: for Ki: porcine 5-HT2, [3H]ketanserin, average of 2 experiments in triplicate; for D3-selectivity 5-HT2/D3: ratio of Ki values 5-HT2/D3
Chain of 5-HT2 (P50129 whole entry): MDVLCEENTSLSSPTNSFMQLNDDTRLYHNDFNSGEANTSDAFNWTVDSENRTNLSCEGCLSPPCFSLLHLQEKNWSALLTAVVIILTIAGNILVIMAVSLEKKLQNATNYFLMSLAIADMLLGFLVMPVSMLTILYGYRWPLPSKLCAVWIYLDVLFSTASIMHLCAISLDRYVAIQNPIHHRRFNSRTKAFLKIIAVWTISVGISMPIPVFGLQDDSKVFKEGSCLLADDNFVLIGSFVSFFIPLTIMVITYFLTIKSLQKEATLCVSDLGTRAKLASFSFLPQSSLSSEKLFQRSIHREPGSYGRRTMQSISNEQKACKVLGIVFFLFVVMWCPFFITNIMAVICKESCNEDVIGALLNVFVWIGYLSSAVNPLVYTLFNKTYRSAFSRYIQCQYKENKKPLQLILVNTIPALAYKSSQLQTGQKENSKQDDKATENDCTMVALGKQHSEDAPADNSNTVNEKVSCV
Experimental: as §1

human D4.4-receptor = biological target: T3, human D4.4-receptor (Homo sapiens, UniProt P21917); assay: radioligand binding, [3H]spiperone, CHO cell membrane homogenates expressing human D4.4; conditions: for Ki: human D4.4, [3H]spiperon, average of 2-6 experiments in triplicate; for D3-selectivity D4.4/D3: ratio of Ki values D4.4/D3
T3 construct: expressed in transfected cells
T3 sequence (P21917 1-419): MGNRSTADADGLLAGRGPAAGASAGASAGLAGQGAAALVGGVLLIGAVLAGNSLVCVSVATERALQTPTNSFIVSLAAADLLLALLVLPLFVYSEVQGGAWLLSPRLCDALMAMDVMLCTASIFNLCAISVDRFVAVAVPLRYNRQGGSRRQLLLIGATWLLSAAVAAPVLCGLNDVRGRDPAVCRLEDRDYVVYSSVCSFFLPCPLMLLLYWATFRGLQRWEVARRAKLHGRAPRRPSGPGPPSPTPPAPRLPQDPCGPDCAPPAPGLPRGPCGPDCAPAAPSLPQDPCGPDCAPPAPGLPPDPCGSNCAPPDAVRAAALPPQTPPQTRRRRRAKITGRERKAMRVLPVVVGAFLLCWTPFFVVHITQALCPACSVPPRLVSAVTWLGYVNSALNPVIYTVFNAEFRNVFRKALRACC
Experimental: as §2

D1-receptor = biological target: T4, D1-receptor (Sus scrofa, UniProt P50130); assay: radioligand binding, D1 receptor, [3H]SCH 23390, porcine striatum membrane homogenates; conditions: porcine D1, [3H]SCH 23390; average of 2-6 experiments in triplicate
T4 construct: native membrane homogenates, obtained from porcine striatum; from tissue; host or cells: porcine striatum
T4 sequence (P50130 whole entry): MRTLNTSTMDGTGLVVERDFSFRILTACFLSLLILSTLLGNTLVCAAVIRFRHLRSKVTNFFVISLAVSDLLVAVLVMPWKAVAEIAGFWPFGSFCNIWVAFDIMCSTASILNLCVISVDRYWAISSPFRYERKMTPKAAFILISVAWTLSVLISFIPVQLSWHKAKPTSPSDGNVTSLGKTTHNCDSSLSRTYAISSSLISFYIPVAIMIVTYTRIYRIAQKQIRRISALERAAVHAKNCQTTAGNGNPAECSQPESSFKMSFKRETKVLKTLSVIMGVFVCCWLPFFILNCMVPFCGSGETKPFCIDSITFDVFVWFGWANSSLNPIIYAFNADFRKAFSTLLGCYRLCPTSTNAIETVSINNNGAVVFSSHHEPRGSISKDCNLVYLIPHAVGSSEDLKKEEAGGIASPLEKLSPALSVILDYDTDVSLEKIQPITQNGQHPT
Experimental: (§3) The biological activities of the compounds according to the invention were determined in radioligand bonding investigations. All radioligand experiments were performed according to methods described by us (Hübner, H. et al. J. Med. Chem. 2000, 43, 756-762). For the measurement of the affinities to the receptors of the D2-family membrane homogenates of Chinese hamster ovary cells (CHO cells) were used, which stably express the human D2long-, the human D2short- (Hayes, G. et al. Mol. Endocrinol. 1992, 6, 920-926), the human D3- (Sokoloff, P. et al. Eur. J. Pharmacol. 1992, 225, 331-337) or the human D4.4-receptor sub-type, (Asghari, V. J. Neurochem. 1995, 65,1157-1165) respectively. Basically the binding assays took place by incubation of the receptor homogenates with the radioligand [^3H]spiperone and the compounds under investigation in various concentrations. Determination of the affinities to the D1-receptor took place with native membrane homogenates, obtained from porcine striatum, and the D1-selective radioligands [^3H]SCH 23390.

human D2short = biological target: T5, human D2short (Homo sapiens, UniProt P14416); assay: radioligand binding, [3H]spiperone, CHO cell membrane homogenates expressing human D2short; conditions: for Ki: human D2short, [3H]spiperon, average of 2-6 experiments in triplicate; for D3-selectivity D2short/D3: ratio of Ki values D2short/D3
T5 construct: expressed in transfected cells
T5 sequence (P14416 1-414 isoform P14416-2): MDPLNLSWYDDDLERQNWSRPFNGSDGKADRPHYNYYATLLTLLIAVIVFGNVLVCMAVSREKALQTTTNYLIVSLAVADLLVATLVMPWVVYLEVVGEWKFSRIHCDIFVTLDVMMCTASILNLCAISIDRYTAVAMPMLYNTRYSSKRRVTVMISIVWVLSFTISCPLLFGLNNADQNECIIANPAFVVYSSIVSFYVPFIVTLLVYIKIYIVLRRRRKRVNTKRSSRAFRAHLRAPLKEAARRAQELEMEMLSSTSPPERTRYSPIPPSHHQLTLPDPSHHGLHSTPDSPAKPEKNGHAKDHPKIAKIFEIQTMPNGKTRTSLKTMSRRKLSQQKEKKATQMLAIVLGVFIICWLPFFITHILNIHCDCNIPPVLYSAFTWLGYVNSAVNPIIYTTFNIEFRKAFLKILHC
Experimental: as §2

human D3 = biological target: T6, human D3 (Homo sapiens, UniProt P35462); assay: radioligand binding, [3H]spiperone, CHO cell membrane homogenates expressing human D3; conditions: human D3, [3H]spiperon; average of 2-6 experiments in triplicate
T6 construct: expressed in transfected cells
T6 sequence (P35462 whole entry): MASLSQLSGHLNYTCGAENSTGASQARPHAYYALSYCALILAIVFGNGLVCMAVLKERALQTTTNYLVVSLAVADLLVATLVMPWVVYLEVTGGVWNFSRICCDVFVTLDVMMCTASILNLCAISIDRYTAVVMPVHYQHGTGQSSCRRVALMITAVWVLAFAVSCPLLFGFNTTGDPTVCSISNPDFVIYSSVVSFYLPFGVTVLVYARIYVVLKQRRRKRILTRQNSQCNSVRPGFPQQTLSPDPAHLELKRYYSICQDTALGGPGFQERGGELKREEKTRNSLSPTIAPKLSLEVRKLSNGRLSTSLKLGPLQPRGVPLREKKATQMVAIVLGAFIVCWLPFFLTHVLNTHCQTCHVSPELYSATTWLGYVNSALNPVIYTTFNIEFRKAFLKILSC
Experimental: as §3

dopamine-D3-receptor = biological target: T7, dopamine-D3-receptor (Homo sapiens, UniProt P35462); assay: mitogenesis assay, [3H]thymidine incorporation in D3 receptor-expressing cells; type: cell-based; conditions: for EC50: dose-effect curve from average values of all individual trials, seven concentrations in quadruplicate; for classification of intrinsic activity at the D3-receptor: mitogenesis assay, compared with full agonist quinpirol; for agonistic activity: with reference to the maximum effect of the full agonist Quinpirol
T7 construct: expressed in transfected cells
T7 sequence (P35462 whole entry): as above
Experimental: Here various concentrations of the compound under investigation were incubated with D3 receptor-expressing cells and then the receptor-mediated stimulation of the mitogenesis rate was measured by incorporation of the radioactive marker [^3H]thymidine.

porcine α1-receptor [3] = biological target: T8, porcine α1-receptor; assay: radioligand binding, [3H]prazosin, porcine cortex-membrane preparations; conditions: porcine α1, [3H]prazosin; average of 2 experiments in triplicate
T8 construct: Ki-values α1; other: porcine α1, [3H]prazosin; average of 2 experiments in triplicate
Experimental: as §1

porcine α1-receptor [4] = assay: as above; conditions: ratio of Ki values α1/D3
Experimental: as §1

Row | SMILES | D3-selectivity 5-HT1A/D3 (5-HT1A [1]) | Ki (5-HT1A [2]) | Ki (human D2long) | D3-selectivity D2long/D3 (human D2long) | Ki (5-HT2) | D3-selectivity 5-HT2/D3 (5-HT2) | Ki (human D4.4-receptor) | D3-selectivity D4.4/D3 (human D4.4-receptor) | melting point | Ki (D1-receptor) | Ki (human D2short) | D3-selectivity D2short/D3 (human D2short) | Ki (human D3) | EC50 (dopamine-D3-receptor) | classification of intrinsic activity at the D3-receptor (dopamine-D3-receptor) | agonistic activity (dopamine-D3-receptor) | Ki (porcine α1-receptor [3]) | D3-selectivity α1/D3 (porcine α1-receptor [4])
1 | O=C(NCCCCN1CCN(c2cccc(Cl)c2Cl)CC1)c1cc2cccnc2[nH]1 [Example 3, N-(4-(4-(2,3-dichlorophenyl)piperazin-1-yl)butyl)-1H-pyrrolo[2,3-b]pyridin-2-ylcarbamide] | 180 | 24 nM | 19 nM | 150 | 63 nM | 480 | 42 nM | 320 | 232 °C | 440 nM | 6.5 nM | 34 | 0.13 nM | 1.3 nM | partial agonist | 41% | 3.6 nM | 28
2 | COc1ccccc1N1CCN(CCCCNC(=O)c2cc3cccnc3n2S(=O)(=O)c2ccccc2)CC1 [Example 2, N-(4-(4-(2-methoxyphenyl)piperazin-1-yl)butyl)-1-phenylsulfonyl-1H-pyrrolo[2,3-b]pyridin-2-ylcarbamide] | 1.5 | 14 nM | 180 nM | 19 | 1100 nM | 120 | 130 nM | 14 | 166 °C | 1300 nM | 110 nM | 12 | 9.3 nM | 7.9 nM | weakly partially agonistic | 12% | 4.6 nM | 0.49
3 | COc1ccccc1N1CCN(CCCCNC(=O)c2cc3cccnc3[nH]2)CC1 [Example 1, N-(4-(4-(2-methoxyphenyl)piperazin-1-yl)butyl)-1H-pyrrolo[2,3-b]pyridin-2-ylcarbamide] | 28 | 23 nM | 58 nM | 71 | 340 nM |  | 32 nM | 39 | 117 °C | 1500 nM | 42 nM | 51 | 0.82 nM | 0.96 nM | weakly partially agonistic | 14% | 1.3 nM | 1.6
4 | O=C(NCCCCN1CCN(c2cccc(Cl)c2Cl)CC1)c1cc2cccnc2n1S(=O)(=O)c1ccccc1 [Example 4, N-(4-(4-(2,3-dichlorophenyl)piperazin-1-yl)butyl)-1-phenylsulfonyl-1H-pyrrolo[2,3-b]pyridin-2-ylcarbamide] | 20 | 16 nM | 68 nM | 85 | 200 nM | 250 | 110 nM | 140 | 82 °C | 680 nM | 39 nM | 49 | 0.8 nM | 2.1 nM | weakly partially agonistic | 16% | 21 nM | 26
